Reference: patent US12104201B2, “Engineered gyri-like mutein aptamers, and related methods” (CROSSLIFE TECHNOLOGIES INC., priority 2019, dated 2024)
Substitutions are numbered along the chain they refer to. Numbers in names are those of the source.

Experiments:
[1] = test system: E. coli expressing SAV2435 WT; experiment: In vivo drug-binding aptamer screening (ampicillin resistance); details: E. coli growth, OD600, 24 hrs
[2] = test system: bacterial growth; ampicillin pre-incubated with LIN2189 (LIN2189 DUB); experiment: Ex vivo drug-metabolizing aptamer screening (bacterial growth in ampicillin pre-incubated with protein)
[3] = test system: E. coli expressing CTR107 WT; experiment: In vivo drug-binding aptamer screening (ampicillin resistance); details: E. coli growth, OD600, 24 hrs
[4] = test system: E. coli expressing LIN2189 DUB; experiment: as above; details: E. coli growth, OD600, 24 hrs
[5] = molecular target: S. aureus SAV2435 variant V105W (SEQ ID NO:10) (Staphylococcus aureus, UniProt A0A0H3K0Y5, V105W); assay type: binding; details: 500 nM Acridine Orange
[6] = molecular target: T1, CTR107 WT (C. tepidium Gyrl-like protein, wild type, SEQ ID NO:4) (Chlorobaculum tepidum, UniProt Q8KFZ1); experiment: biochemical; assay type: binding
T1 construct: begins […]

[7] = molecular target: T2, C. tepidium CTR107 variant Y106W (SEQ ID NO:20) (Chlorobaculum tepidum, UniProt Q8KFZ1, Y106W); experiment: biochemical; assay type: binding
T2 sequence (Q8KFZ1 with tags, fused parts or gaps Y106W): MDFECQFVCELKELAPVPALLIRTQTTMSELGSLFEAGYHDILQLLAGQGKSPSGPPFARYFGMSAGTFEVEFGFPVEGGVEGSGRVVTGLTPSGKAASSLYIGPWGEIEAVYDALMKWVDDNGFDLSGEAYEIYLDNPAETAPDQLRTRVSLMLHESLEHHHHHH

[8] = molecular target: T3, C. tepidium CTR107 variant E133Q (SEQ ID NO:22) (Chlorobaculum tepidum, UniProt Q8KFZ1, E133Q); assay type: binding
T3 sequence (Q8KFZ1 with tags, fused parts or gaps E133Q): T2 sequence (Q8KFZ1 with tags, fused parts or gaps Y106W) with W106Y, E133Q

[9] = molecular target: S. aureus SAV2435 variant Y137W (SEQ ID NO:16) (Staphylococcus aureus, UniProt A0A0H3K0Y5, V105W/Y137W); assay type: binding; details: Acridine Orange
[10] = molecular target: T4, SAV2435 WT (S. aureus Gyrl-like protein, wild type, SEQ ID NO:2) (Staphylococcus aureus, UniProt A0A0H3K0Y5); assay type: binding
T4 construct: listing organism Escherichia coli is only the host

[11] = molecular target: S. aureus SAV2435 variant P106W (SEQ ID NO:12) (Staphylococcus aureus, UniProt A0A0H3K0Y5, P106W); assay type: binding; details: 500 nM Acridine Orange
[12] = molecular target: S. aureus SAV2435 variant N27W (SEQ ID NO:8) (Staphylococcus aureus, UniProt A0A0H3K0Y5); assay type: binding; details: Acridine Orange
[13] = molecular target: S. aureus SAV2435 variant E135Q (SEQ ID NO:14) (Staphylococcus aureus, UniProt A0A0H3K0Y5, E135Q/V105W); assay type: binding; details: 500 nM Acridine Orange
[14] = molecular target: C. tepidium CTR107 variant, highest affinity FAM-binding aptamer from phage display library (Chlorobaculum tepidum, UniProt Q8KFZ1); experiment: Fluorescence-binding assay, Kd by nonlinear regression fit to the Hill equation
[15] = molecular target: FAM antibody; experiment: as above
From the text: (§1) Fluorescence Binding Assay

[16] = molecular target: C. tepidium CTR107 variant E36R (SEQ ID NO:18) (Chlorobaculum tepidum, UniProt Q8KFZ1, E36R); assay type: binding; details: FAM
[17] = molecular target: C. tepidium CTR107 variant, weakest FAM-binding aptamer from phage display library (Chlorobaculum tepidum, UniProt Q8KFZ1); experiment: Fluorescence-binding assay, Kd by nonlinear regression fit to the Hill equation
[18] = molecular target: T5, LIN2189 WT (L. innocua Gyrl-like protein, wild type, SEQ ID NO:6) (Listeria innocua, UniProt Q929T5); experiment: Fluorescence binding assay (enhancement/quenching of dye fluorescence); details: 1 μM FAM, saturating protein
T5 construct: recombinant, purified
T5 sequence (Q929T5 with tags, fused parts or gaps): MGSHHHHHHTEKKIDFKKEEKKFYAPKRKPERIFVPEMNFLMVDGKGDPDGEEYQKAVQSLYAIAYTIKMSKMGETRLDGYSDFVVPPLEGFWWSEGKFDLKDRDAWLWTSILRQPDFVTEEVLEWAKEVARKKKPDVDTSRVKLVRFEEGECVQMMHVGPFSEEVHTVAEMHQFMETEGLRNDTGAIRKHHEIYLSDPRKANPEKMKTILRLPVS
Experimental: as §1
CTR107 when added at 10 μM induced a 10-fold increase in DFHBI fluorescence (FIG. 6A).
Malachite Green fluoresces in the far-red regions when stimulated by binding aptamers, therefore we monitored its fluorescence emission at 665-720 nm after exciting at 635 nm.
Thioflavin T is a benzothiazole dye that has also been used in many fluorescence applications. […] The Corn aptamer is able to bind to two Thioflavin T molecules at a homodimer interface formed by G-quadruplexes. We tested whether Gyrl-like proteins could function as fluorescence enhancement aptamers of Thioflavin T. Thioflavin T has excitation and emission maxima of […], respectively. We probed the fluorescence enhancing properties of SAV2435, CTR107 and LIN2189 variants on Thioflavin T (FIG. 8). […] All other variants display either a small 4-6 fold increase or no increase in Thioflavin T fluorescence.

[19] = molecular target: T6, L. innocua LIN2189 variant E157A (SEQ ID NO:28) (Listeria innocua, UniProt Q929T5, E157A); assay type: binding; details: FAM
T6 construct: listing organism Escherichia coli is only the host

[20] = UV fluorescence quenching of Daunorubicin; details: 5 μM daunorubicin; saturating protein

T1 sequence (Q8KFZ1 entry or part of it): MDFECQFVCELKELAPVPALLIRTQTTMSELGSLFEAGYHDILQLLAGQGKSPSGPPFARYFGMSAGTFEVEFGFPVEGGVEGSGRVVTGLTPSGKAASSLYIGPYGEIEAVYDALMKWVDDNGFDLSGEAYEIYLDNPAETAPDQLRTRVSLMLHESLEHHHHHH
T6 sequence (Q929T5 entry or part of it E157A): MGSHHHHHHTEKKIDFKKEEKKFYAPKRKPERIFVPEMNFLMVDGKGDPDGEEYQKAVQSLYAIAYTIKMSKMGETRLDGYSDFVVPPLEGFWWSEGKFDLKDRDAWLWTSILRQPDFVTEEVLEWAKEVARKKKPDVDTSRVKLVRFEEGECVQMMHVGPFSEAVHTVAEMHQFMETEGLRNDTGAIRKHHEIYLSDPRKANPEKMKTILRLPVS
C. tepidium CTR107 variant E36R (SEQ ID NO:18), sequence (Q8KFZ1 entry or part of it E36R): as the sequence (Q8KFZ1 entry or part of it) above, with E36R counted along it

CC1(C)S[C@@H]2[C@H](NC(=O)[C@H](N)c3ccccc3)C(=O)N2[C@H]1C(=O)O [Ampicillin]
susceptibility to ampicillin [1]: susceptible | resistance up to ampicillin concentration [2]: up to 500 μg/ml | partial resistance up to ampicillin concentration [3]: up to 100 μg/ml | highest resistance at ampicillin concentration [4]: 100 µg/mL

CN(C)c1ccc2cc3ccc(N(C)C)cc3nc2c1 [Acridine Orange]
increase in fluorescence intensity [5]: doubled | increase in fluorescence intensity ([6]; 500 nM Acridine Orange): doubled | quenching effect on fluorescence ([7]; Acridine Orange): 2-3 fold | increase in fluorescence intensity ([8]; 500 nM Acridine Orange): doubled | quenching effect on fluorescence [9]: 2-3 fold | quenching effect on fluorescence ([10]; Acridine Orange): 2-3 fold | increase in fluorescence intensity [11]: doubled | quenching effect on fluorescence [12]: 2-3 fold | increase in fluorescence intensity [13]: doubled

5(6)-Carboxyfluorescein [FAM]
decrease in fluorescence ([6]; 1 μM FAM, saturating protein): 6 fold | affinity relative to FAM antibody [14]: 11 fold | fluorescence quenching ([7]; FAM): loss of quenching properties | Kd [15]: 8 nM | fluorescence quenching ([8]; FAM): loss of quenching properties | fluorescence quenching [16]: loss of quenching properties | effect on fluorescence ([10]; 1 μM FAM, saturating protein): no effect | Kd [17]: 3 nM | decrease in fluorescence [18]: 2 fold | changes in fluorescence quenching compared to LIN2189 WT [19]: no changes

B1: CTR107 Y106W: CTR107 variant aptamer, SEQ ID NO:20 (protein, listed as Escherichia coli)
chain: T2 sequence (Q8KFZ1 with tags, fused parts or gaps Y106W)
UV fluorescence of Daunorubicin with protein [20]: complete shut off of fluorescence
